Results published in ChEMBL document CHEMBL1153753, “Structure-activity relationships and mechanism of action of antitumor bis 8-hydroxyquinoline substituted benzylamines” (Eur J Med Chem, 2010).
Activity calls are given as the source filed them. No cut-off for these calls is given here.

Assays:
[1] = Cytotoxicity against human KB3 cells after 72 hrs by MTS assay; format: functional; settings: KB3, 72 h
[2] = Antiproliferative activity against human U87 cells expressing GFP after 3 days by flash-cytometry; format: functional, U-87MG ATCC; settings: U-87 MG, 72 h, read-out: ED50 (the source's name)
[3] = tested on: U-87MG ATCC; assay: Antiproliferative activity against human U87 cells expressing GFP assessed as reduction in cell density at 20 uM by flash-cytometry; format: functional, cell-based
[4] = Cytotoxicity against human U373 cells by MTT assay; format: functional, cell-based, U-373MG ATCC; settings: U373 MG
[5] = Disregulation of endoplasmic reticulum stress responsive gene expression in human U87 cells assessed as change in Chop mRNA level at 0.5 uM after 16 hrs by microarray analysis relative to untreated control; format: functional, cell-based; settings: U-87MG ATCC
[6] = Disregulation of endoplasmic reticulum stress responsive gene expression in human U87 cells assessed as change in ATF3 mRNA level at 0.5 uM after 16 hrs by microarray analysis relative to untreated control; format: functional, cell-based; settings: U-87MG ATCC
[7] = Disregulation of endoplasmic reticulum stress responsive gene expression in human U87 cells assessed as change in ATF4 mRNA level at 0.5 uM after 16 hrs by microarray analysis relative to untreated control; format: functional, cell-based; settings: U-87MG ATCC
[8] = Disregulation of endoplasmic reticulum stress responsive gene expression in human U87 cells assessed as change in RGS16 mRNA level at 0.5 uM after 3 hrs by microarray analysis relative to untreated control; format: functional, cell-based; settings: U-87MG ATCC
[9] = Disregulation of endoplasmic reticulum stress responsive gene expression in human U87 cells assessed as change in PUMA mRNA level at 0.5 uM after 16 hrs by microarray analysis relative to untreated control; format: functional, cell-based; settings: U-87MG ATCC
[10] = Disregulation of DNA-damage and oxidative stress responsive gene expression in human U87 cells assessed as change in GADD45A mRNA level at 0.5 uM after 16 hrs by microarray analysis relative to untreated control; format: functional, U-87MG ATCC
[11] = Disregulation of DNA-damage and oxidative stress responsive gene expression in human U87 cells assessed as change in DDIT4 mRNA level at 0.5 uM after 16 hrs by microarray analysis relative to untreated control; format: functional, U-87MG ATCC
[12] = Disregulation of inflammation related gene expression in human U87 cells assessed as change in IL1F5 mRNA level at 0.5 uM after 16 hrs by microarray analysis relative to untreated control; format: functional, cell-based; settings: U-87MG ATCC
[13] = Disregulation of inflammation related gene expression in human U87 cells assessed as change in EREG mRNA level at 0.5 uM after 3 hrs by microarray analysis relative to untreated control; format: functional, cell-based; settings: U-87MG ATCC
[14] = Disregulation of inflammation related gene expression in human U87 cells assessed as change in IFRD1 mRNA level at 0.5 uM after 16 hrs by microarray analysis relative to untreated control; format: functional, cell-based; settings: U-87MG ATCC
[15] = Disregulation of inflammation related gene expression in human U87 cells assessed as change in CCL17 mRNA level at 0.5 uM after 3 hrs by microarray analysis relative to untreated control; format: functional, cell-based; settings: U-87MG ATCC
[16] = Disregulation of inflammation related gene expression in human U87 cells assessed as change in CXCL3 mRNA level at 0.5 uM after 16 hrs by microarray analysis relative to untreated control; format: functional, cell-based; settings: U-87MG ATCC
[17] = Disregulation of apoptosis related gene expression in human U87 cells assessed as change in NOXA mRNA level at 0.5 uM after 3 hrs by microarray analysis relative to untreated control; format: functional, cell-based; settings: U-87MG ATCC
[18] = Disregulation of apoptosis related gene expression in human U87 cells assessed as change in IGFBP3 mRNA level at 0.5 uM after 16 hrs by microarray analysis relative to untreated control; format: functional, cell-based; settings: U-87MG ATCC
[19] = Disregulation of apoptosis related gene expression in human U87 cells assessed as change in BIM mRNA level at 0.5 uM after 16 hrs by microarray analysis relative to untreated control; format: functional, cell-based; settings: U-87MG ATCC
[20] = Disregulation of apoptosis related gene expression in human U87 cells assessed as change in FAS mRNA level at 0.5 uM after 16 hrs by microarray analysis relative to untreated control; format: functional, cell-based; settings: U-87MG ATCC
[21] = Disregulation of apoptosis related gene expression in human U87 cells assessed as change in GDF15 mRNA level at 0.5 uM after 16 hrs by microarray analysis relative to untreated control; format: functional, cell-based; settings: U-87MG ATCC
[22] = Disregulation of apoptosis related gene expression in human U87 cells assessed as change in E2F1 mRNA level at 0.5 uM after 16 hrs by microarray analysis relative to untreated control; format: functional, cell-based; settings: U-87MG ATCC
[23] = Disregulation of cell cycle related gene expression in human U87 cells assessed as change in cyclin D mRNA level at 0.5 uM after 16 hrs by microarray analysis relative to untreated control; format: functional, cell-based; settings: U-87MG ATCC
[24] = Disregulation of cell cycle related gene expression in human U87 cells assessed as change in CCPG1 mRNA level at 0.5 uM after 16 hrs by microarray analysis relative to untreated control; format: functional, cell-based; settings: U-87MG ATCC
[25] = Disregulation of cell cycle related gene expression in human U87 cells assessed as change in CDK2 mRNA level at 0.5 uM after 16 hrs by microarray analysis relative to untreated control; format: functional, cell-based; settings: U-87MG ATCC
[26] = Disregulation of cell cycle related gene expression in human U87 cells assessed as change in cyclin F mRNA level at 0.5 uM after 16 hrs by microarray analysis relative to untreated control; format: functional, cell-based; settings: U-87MG ATCC
[27] = Disregulation of cell cycle related gene expression in human U87 cells assessed as change in CDC6 mRNA level at 0.5 uM after 16 hrs by microarray analysis relative to untreated control; format: functional, cell-based; settings: U-87MG ATCC
[28] = Disregulation of cell cycle related gene expression in human U87 cells assessed as change in CDC25A mRNA level at 0.5 uM after 16 hrs by microarray analysis relative to untreated control; format: functional, cell-based; settings: U-87MG ATCC
[29] = Disregulation of cell cycle related gene expression in human U87 cells assessed as change in cyclin E2 mRNA level at 0.5 uM after 16 hrs by microarray analysis relative to untreated control; format: functional, cell-based; settings: U-87MG ATCC
[30] = Disregulation of cell cycle related gene expression in human U87 cells assessed as change in EDN1 mRNA level at 0.5 uM after 3 hrs by microarray analysis relative to untreated control; format: functional, cell-based; settings: U-87MG ATCC
[31] = Disregulation of cell cycle related gene expression in human U87 cells assessed as change in CDCA7 mRNA level at 0.5 uM after 16 hrs by microarray analysis relative to untreated control; format: functional, cell-based; settings: U-87MG ATCC
[32] = Disregulation of cell development related gene expression in human U87 cells assessed as change in PRPX1 mRNA level at 0.5 uM after 16 hrs by microarray analysis relative to untreated control; format: functional, cell-based; settings: U-87MG ATCC
[33] = Disregulation of cell development related gene expression in human U87 cells assessed as change in HOXA6 mRNA level at 0.5 uM after 16 hrs by microarray analysis relative to untreated control; format: functional, cell-based; settings: U-87MG ATCC
[34] = Disregulation of cell development related gene expression in human U87 cells assessed as change in HQXB9 mRNA level at 0.5 uM after 16 hrs by microarray analysis relative to untreated control; format: functional, cell-based; settings: U-87MG ATCC
[35] = Disregulation of cell development related gene expression in human U87 cells assessed as change in ISL2 mRNA level at 0.5 uM after 16 hrs by microarray analysis relative to untreated control; format: functional, cell-based; settings: U-87MG ATCC

**Q.** Which CC50 [1] does the source give for `Cc1ccc(CN(Cc2ccc(O)c3ncccc23)Cc2ccc(O)c3ncccc23)cc1` here?
**A.** 3 nM

**Q.** And the EC50 [2]?
**A.** < 200 nM

**Q.** What about the Activity [3] of the same molecule?
**A.** Active

**Q.** What about the IC50 [4] of the same molecule?
**A.** 53 nM

**Q.** What about the fold change (FC) [5] of the same molecule?
**A.** 3

**Q.** What about the Activity [6] of the same molecule?
**A.** Active

**Q.** What about the fold change (FC) [7] of the same molecule?
**A.** 3

**Q.** And the fold change (FC) [8]?
**A.** > 1.4

**Q.** And the fold change (FC) [9]?
**A.** 3

**Q.** What about the “fold change (FC)” value [10] of the same molecule?
**A.** 3

**Q.** What about the “fold change (FC)” value [11] of the same molecule?
**A.** 3

**Q.** What about the fold change (FC) [12] of the same molecule?
**A.** 3

**Q.** What about the fold change (FC) [13] of the same molecule?
**A.** > 1.4

**Q.** And the fold change (FC) [14]?
**A.** 3

**Q.** And the fold change (FC) [15]?
**A.** > 1.4

**Q.** What about the fold change (FC) [16] of the same molecule?
**A.** 3

**Q.** What about the fold change (FC) [17] of the same molecule?
**A.** > 1.4

**Q.** And the fold change (FC) [18]?
**A.** 3

**Q.** What about the fold change (FC) [19] of the same molecule?
**A.** 3

**Q.** And the fold change (FC) [20]?
**A.** 3

**Q.** What about the fold change (FC) [21] of the same molecule?
**A.** 3

**Q.** What about the fold change (FC) [22] of the same molecule?
**A.** 3

**Q.** And the fold change (FC) [23]?
**A.** 3

**Q.** And the fold change (FC) [24]?
**A.** 3

**Q.** What about the fold change (FC) [25] of the same molecule?
**A.** 3

**Q.** What about the fold change (FC) [26] of the same molecule?
**A.** 3

**Q.** What about the fold change (FC) [27] of the same molecule?
**A.** 3

**Q.** And the fold change (FC) [28]?
**A.** 3

**Q.** What about the fold change (FC) [29] of the same molecule?
**A.** 3

**Q.** And the fold change (FC) [30]?
**A.** > 1.4

**Q.** And the fold change (FC) [31]?
**A.** 3

**Q.** And the fold change (FC) [32]?
**A.** 3

**Q.** What about the fold change (FC) [33] of the same molecule?
**A.** 3

**Q.** And the fold change (FC) [34]?
**A.** 3

**Q.** And the fold change (FC) [35]?
**A.** 3
